Assay results from patent publication US4582821A, “Inhibition of cyclic nucleotide independent protein kinases” (E. I. Du Pont de Nemours and Company, priority 1983, dated 1986).

Key:
pp60^src = assay: Immune complex phosphorylation by pp60src immunoprecipitates of RSV-transformed cells; type: biochemical, Rous sarcoma virus (RSV); details: 250 nmoles per mg protein
Description: In this experiment, Boc-LeuCH2 Br was tested as an inhibitor of pp60^src and p130^fps, the tyrosine-specific protein kinases encoded by the transforming genes of RSV and Fujinami sarcoma virus, respectively.
These viral gene products were partially purified by preparation of immune complexes substantially according to the technique described by Collett et al., Proc. Nat. Acad. Sci. USA 75:2021 (1978). In this procedure, immunoprecipitates are prepared by incubation of extracts of virus-transformed cells with tumor-bearing rabbit serum (TBR) and Staphylococcus protein A suspension (for RSV-transformed cells) or anti-gag serum and Staphylococcus protein A suspension (for FSV-transformed cells).
Assay mixtures contained, in a final volume of 70 μL, 100 μg of immune complex protein, 20 mM Hepes, pH 7.4, and 1 mM MnCl2. Phosphorylation was initiated by addition of 1 μM (4 μCi) [γ-^32 P] ATP. After 10 minutes at about 23°, reactions were terminated by pipetting 20 μL aliquots of assay mixture onto 2×2 cm squares of Whatman 3 MM filter paper, which were immediately suspended in 10% TCA/10 mM sodium pyrophosphate. Test mixtures contained 250 nmoles Boc-LeuCH2 Br per mg protein. Controls for the immunoprecipitation procedure were prepared by immunoprecipitating transformed cell extracts with normal serum. Values in parentheses represent specific phosphorylation induced by virus-transformed cells.

p130^fps = target: T1, p130^fps (UniProt P00530+P03323); assay: Casein phosphorylation by p130fps immunoprecipitates; type: biochemical, Fujinami sarcoma virus (FSV); details: for Casein Phosphorylation: 1 mg/mL casein
T1 construct: anti-gag serum and Staphylococcus protein A suspension (for FSV-transformed cells); viral gag-derived N-terminal portion (natural gag-fps fusion); expressed in transfected cells; immune complex with anti-gag serum and Staphylococcus protein A
Description: In a related experiment, the capacity of Boc-LeuCH2 Br to inhibit phosphorylation of casein by p130^fps was determined. These tests were conducted substantially as described above, except 1 mg/mL casein was added to assay mixtures as a substrate, and reactions were terminated by addition of 2.5 mM unlabeled ATP and immediate cooling to 0°. Phosphorylated casein was separated from immunoprecipitate suspensions by centrifugation at 3,000 xg for 3 minutes. The resulting pellets were resuspended in 70 μL of 10 mM Hepes, pH 7.5, and 20 μL aliquots were pipetted onto filter paper squares as previously described. […]

## CC(C)CC(NC(=O)OC(C)(C)C)C(=O)CBr (stereo not drawn) [Boc-LeuCH2 Br]
pp60^src; pp60 + control serum, no inhibitor 7872
  Immune Complex Phosphorylation: 7516 cpm
pp60^src; pp60src + TBR serum, no inhibitor 5112
  Immune Complex Phosphorylation, specific phosphorylation (in parentheses): 3202 cpm
pp60^src; pp60src + TBR serum, no inhibitor 12984
  Immune Complex Phosphorylation: 10718 cpm
p130^fps; p130fps + anti-gag serum, no inhibitor 4442
  Casein Phosphorylation: 618 cpm
p130^fps; p130fps + control serum, no inhibitor 326
  Casein Phosphorylation: 226 cpm
p130^fps; casein-phosphorylating activity of p130fps, concentration not given
  Percent Inhibition: 63%
